Data set [1] deals with SUDHL10. Kind of data set: Induction of cytotoxicity (Assay 6), SUDHL10.
Data set [2] relates to AMO-1. The data set is described as follows: Antiproliferation assay 7, AMO-1. To be noted: AMO-1 cells, CellTiter-Glo, read-out: Antiproli AMO-1 IC50 median. The data set is classed as cell-based. Summed up: (§1)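 CellTiter-Glo luminescence readout; 72 h compound exposure, 37° C, humidified. Day 0 reference plate read at plating for time-zero baseline.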
For orientation: In ATP-based viability assays light output follows the ATP content of the culture.

The target in data set [3] is MCL-1 (Homo sapiens (Human), UniProt Q07820, K194A/K197A/R201A). The data set is described as follows: Protein-protein interaction assay MCL-1/Noxa BH3 peptide (MCL-1 Assay, TR-FRET). In kind it is binding. The following applies: read-out: MCL-1 Assay IC50 (median). As to the method: The dose-dependent inhibition by the compounds described in this invention of the interaction between MCL-1 and the BH3 domain of Noxa (both human) was determined using a steady state binding competition assay with time-resolved fluorescence energy transfer (TR-FRET) readout. […] The MBP-MCL-1 was purchased from Beryllium (Bedford, Mass., USA). The expression and purification of this protein construct has been described elsewhere (DOI:10.1371/journal.pone.0125010). The Noxa BH3-derived peptide can be obtained from e.g. Biosyntan (Berlin, Germany).
Sequence of MCL-1 (Q07820 whole entry K194A/K197A/R201A, looked up, the tested form may be a part): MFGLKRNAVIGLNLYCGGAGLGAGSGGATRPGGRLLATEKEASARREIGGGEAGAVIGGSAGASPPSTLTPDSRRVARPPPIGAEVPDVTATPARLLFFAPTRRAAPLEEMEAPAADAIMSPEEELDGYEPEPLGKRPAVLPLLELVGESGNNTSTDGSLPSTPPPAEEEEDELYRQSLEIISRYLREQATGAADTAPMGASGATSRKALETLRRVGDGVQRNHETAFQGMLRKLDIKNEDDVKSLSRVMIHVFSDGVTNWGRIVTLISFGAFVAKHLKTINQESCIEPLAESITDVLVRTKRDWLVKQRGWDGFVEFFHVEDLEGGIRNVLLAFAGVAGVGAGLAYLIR
For that, 100-fold concentrated DMSO solutions were prepared by serial dilutions (1:3.4) of a 2 mM stock solution in a clear, 384-well microtiter plate (Greiner Bio-One, Frickenhausen, Germany). From there, 50 nl were transferred in a dark test plate (Greiner Bio-One, Frickenhausen, Germany). […] This was followed by a 10-minute incubation step at 22° C. for pre-equilibration of the putative complex between MBP-MCL-1 and the compounds.
The mixture was incubated in the dark for one hour at 22° C. and then overnight at 4° C.
The resulting data (ratio) were normalized, taking 0% inhibition as the mean value of control measurements (usually 32 data points) where all reagents were included. In this case 50 nl DMSO were used instead of compounds. […] IC50 values were determined by regression analysis based on a 4 parameter equation (minimum, maximum, IC50, Hill; Y=Max+(Min−Max)/(1+(X/IC50)^Hill) using the Screener Software (Genedata).

Data set [4] deals with SUDHL5. Kind of data set: Induction of cytotoxicity (Assay 6), SUDHL5.
Data set [5] relates to SUDHL5. The data set is described as follows: Induction of caspase-3/7 activity (Assay 4), SUDHL5. The following applies: SUDHL5 cells. In kind it is cell-based. Summed up: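 DLBCL cells treated with compounds for 3 hours at 37° C. Caspase-3/7 activity measured by Caspase-Glo 3/7 luminescence, with medium-only background subtracted.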
Data set [6] has as its system SUDHL10. Kind of data set: Induction of caspase-3/7 activity (Assay 4), SUDHL10. In kind it is cell-based. The following applies: SUDHL10 cells. An outline of the steps: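 Luminescent Caspase-Glo 3/7 read-out after a 3 h, 37 °C compound exposure of the DLBCL line SUDHL10. Values are background-corrected using medium-only wells.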
Data set [7] concerns HMC-1-8. The data set is described as follows: Antiproliferation assay 7, HMC-1-8. In kind it is cell-based. To be noted: HMC-1-8 cells, CellTiter-Glo, read-out: Antiproli HMC-1-8 IC50 median. An outline of the steps: as §1
For data set [8], the system named is SUDHL5. Kind of data set: Antiproliferation assay 7, SUDHL5. The data set is classed as cell-based. The following applies: SUDHL5 cells, CellTiter-Glo, read-out: Antiproli SUDHL5 IC50 (median). An outline of the steps: as §1
The test system of data set [9] is SUDHL10. Kind of data set: Antiproliferation assay 7, SUDHL10. The data set is classed as cell-based. To be noted: SUDHL10 cells, CellTiter-Glo, read-out: Antiproli SUDHL10 IC50 (median). As to the method:
Assessment of the Anti-Proliferative Effect of Compounds in Different Cell Lines
The impact of compounds on the proliferation of different cell lines was assessed using the CellTiter-Glo® Luminescent Cell Viability reagent from Promega (G7573).
In parallel, cells were plated in a reference (day 0) plate for time zero determination.
Rim wells were excluded. The cells were incubated for 72 hours in a humidified incubator at 37° C. The day 0 plate was measured by adding 30 μL/well of CTG solution (CellTiter-Glo® Luminescent Cell Viability reagent, Promega G7573) to time zero wells in the reference plate followed by a 10 minutes incubation and luminescence reading at 0.1 ms. using the PHERAstar FS microplate reader (BMG Labtech).
After 72 hours incubation, the treated plates were measured in the same way as the day 0 plate mentioned above.

The test system of data set [10] is MV-4-11. Kind of data set: Antiproliferation assay 7, MV-4-11. To be noted: Homo sapiens, MV4-11, 72 h, MV-4-11 cells, CellTiter-Glo, read-out: Antiproli MV-4-11 IC50 median. The data set is classed as cell-based. Summed up:
as §1

[11] abbreviates: Homo sapiens, SU-DHL10, 5 h, read-out: Cytotox SUDHL10 IC50 (median), SUDHL10 cells, 5 hours, CellTiter-Glo.
Where [12] appears, read: Homo sapiens, SU-DHL-5, 5 h, read-out: Cytotox SUDHL5 IC50 (median), SUDHL5 cells, 5 hours, CellTiter-Glo.
[13] abbreviates: Homo sapiens, SU-DHL-5, 3 h, Caspase-Glo 3/7, read-out: Caspase SUDHL5 EC50 (median).
Where [14] appears, read: Homo sapiens, SU-DHL10, 3 h, Caspase-Glo 3/7, read-out: Caspase SUDHL10 EC50 (median).
Setting [15] is: read-out: Cytotox SUDHL10 IC50 (median), SUDHL10 cells, 5 hours, CellTiter-Glo.
[16] abbreviates: read-out: Cytotox SUDHL5 IC50 (median), SUDHL5 cells, 5 hours, CellTiter-Glo.
[17] abbreviates: 3 hours, Caspase-Glo 3/7, read-out: Caspase SUDHL5 EC50 (median).
[18] abbreviates: 3 hours, Caspase-Glo 3/7, read-out: Caspase SUDHL10 EC50 (median).

pEC50, pIC50: −log10 of the molar value. Where two headings read alike, the source gives them in different places. A value given as a limit tells only on which side of the number the result lay.

The term pIC50 denotes the negative decadic logarithm of the IC50, by convention in mol/L. A word on the pEC50: it is the negative decadic logarithm of the EC50, by convention in mol/L. Take `Cc1c2c(nn1C)OCCCCCn1c(C(=O)O)c(CCCOc3cccc4cc(F)ccc34)c3ccc(Cl)c-2c31` (single isomer, unassigned; enantiomer 1) [Example 84, 4-chloro-7-{3-[(6-fluoronaphthalen-1-yl)oxy]propyl}-2,3-dimethyl-11,12,13,14-tetrahydro-2H,10H-pyrazolo[3′,4′:2,3][1,6]oxazacycloundecino[4,5,6-hi]indole-8-carboxylic Acid—Enantiomer 1]: the negative logarithm of the IC50 (pIC50) was 5.82 in data set [1] (setting [11]); 6.64 in data set [2] (Homo sapiens, AMO1, 72 h); 8.72 in data set [3]; 5.96 in [4] (setting [12]); 4.92 in data set [7] (72 h); 5.89 in data set [8] (Homo sapiens, SU-DHL-5, 72 h). Also, the negative-log EC50 (pEC50) in data set [5] (setting [13]) is 6.00; in data set [6] (setting [14]), 5.89.

Turning to `CCc1c2c(nn1C)N(CCC1CCOCC1)CCCCCn1c(C(=O)O)c(CCCOc3cccc4cc(F)ccc34)c3ccc(Cl)c-2c31` (racemic) [Example 80, (rac)-4-chloro-3-ethyl-7-{3-[(6-fluoronaphthalen-1-yl)oxy]propyl}-2-methyl-15-[2-(oxan-4-yl)ethyl]-10,11,12,13,14,15-hexahydro-2H-pyrazolo[4′,3′:4,5][1,6]diazacycloundecino[3,2,1-hi]indole-8-carboxylic Acid], the negative-log IC50 (pIC50) in data set [1] (setting [11]) is 6.28; in [2] (Homo sapiens, AMO1, 72 h) it was 6.57; in data set [3] it was 8.70; in data set [4] (setting [12]), 6.30; in [7] (72 h), 5.40; in data set [8] (Homo sapiens, SU-DHL-5, 72 h), 6.39. For the same compound, the pEC50 in data set [5] (setting [13]) was 6.40; in [6] (setting [14]) it was 6.22.

Take `Cc1nn(C)c2c1-c1c(Cl)ccc3c(CCCOc4cccc5ccccc45)c(C(=O)O)n(c13)C/C=C\COC2` (racemic) [Example 1, (rac)-(11Z)-4-chloro-1,3-dimethyl-7-[3-(naphthalen-1-yloxy)propyl]-1,10,13,15-tetrahydropyrazolo[4′,3′:9,10][1,6]oxazacycloundecino[8,7,6-hi]indole-8-carboxylic Acid]: the negative-log IC50 (pIC50) was 5.24 in data set [9] (Homo sapiens, SU-DHL10, 72 h); 5.54 in data set [4] (setting [12]); 5.24 in data set [8] (Homo sapiens, SU-DHL-5, 72 h). Moreover, the results for the negative logarithm of the EC50 (pEC50) in data set [5] (setting [13]) and in data set [6] (setting [14]) were 5.54 and 5.26, respectively.

Consider `Cc1nn(C)c2c1-c1c(Cl)ccc3c(CCCOc4cccc5ccccc45)c(C(=O)O)n(c13)CCCCOC2` (single isomer, unassigned; enantiomer 2) [Example 4, 4-chloro-1,3-dimethyl-7-[3-(naphthalen-1-yloxy)propyl]-1,10,11,12,13,15-hexahydropyrazolo[4′,3′:9,10][1,6]oxazacycloundecino[8,7,6-hi]indole-8-carboxylic Acid (Enantiomer 2)], for which the pIC50 in data set [1] (setting [15]) was under 4.48; in [9] (72 hours), 4.92; in data set [4] (setting [16]), 4.59; in data set [8] (72 hours) it was 4.89. For the same compound, the pEC50 is under 4.55 in data set [5] (setting [17]) and under 4.48 in [6] (setting [18]).

On to `Cc1c2c(nn1C)COCCCCn1c(C(=O)O)c(CCCOc3cccc4cc(F)ccc34)c3ccc(Cl)c-2c31` (racemic) [Example 14, (rac)-4-chloro-7-{3-[(6-fluoronaphthalen-1-yl)oxy]propyl}-2,3-dimethyl-2,10,11,12,13,15-hexahydropyrazolo[4′,3′:9,10][1,6]oxazacycloundecino[8,7,6-hi]indole-8-carboxylic Acid], for which the negative logarithm of the IC50 (pIC50) in data set [1] (setting [11]) is 6.21; in [2] (Homo sapiens, AMO1, 72 h), 6.13; in [9] (Homo sapiens, SU-DHL10, 72 h), 6.38; in data set [4] (setting [12]), 6.41; in data set [8] (Homo sapiens, SU-DHL-5, 72 h), 6.29; in data set [10] it was 5.91. Further, the pEC50 in [5] (setting [13]) is 6.60; in data set [6] (setting [14]), 6.39.

With `Cc1c2c(nn1CCCN1CCN(C)CC1)COCCCCn1c(C(=O)O)c(CCCOc3cccc4ccccc34)c3ccc(Cl)c-2c31` (single isomer, unassigned; enantiomer 2) [Example 50, (−)-4-chloro-3-methyl-2-[3-(4-methylpiperazin-1-yl)propyl]-7-{3-[(naphthalen-1-yl)oxy]propyl}-2,10,11,12,13,15-hexahydropyrazolo[4′,3′:9,10][1,6]oxazacycloundecino[8,7,6-hi]indole-8-carboxylic Acid (Enantiomer 2)], the pIC50 in [1] (setting [15]) is 5.07; in data set [2] (72 hours) it was 4.88; in [3], 7.82; in data set [4] (setting [16]), 5.08; in data set [7] (72 hours), 4.91; in data set [8] (72 hours) it was 5.17. Moreover, the negative-log EC50 (pEC50) was 4.89 in [5] (setting [17]) and 4.92 in data set [6] (setting [18]).

As to `CCc1c2c(nn1C)CN(C)CCCCn1c(C(=O)O)c(CCCOc3cccc4cc(F)ccc34)c3ccc(Cl)c-2c31` (racemic) [Example 5, (rac)-4-chloro-3-ethyl-7-{3-[(6-fluoronaphthalen-1-yl)oxy]propyl}-2,14-dimethyl-10,11,12,13,14,15-hexahydro-2H-pyrazolo[3′,4′:8,9][1,6]diazacycloundecino[10,11,1-hi]indole-8-carboxylic Acid], the pIC50 is 6.28 in data set [1] (setting [11]); 6.21 in data set [2] (Homo sapiens, AMO1, 72 h); 6.55 in data set [9] (Homo sapiens, SU-DHL10, 72 h); 6.54 in [4] (setting [12]); 6.48 in data set [8] (Homo sapiens, SU-DHL-5, 72 h); 6.15 in [10]. Besides, the pEC50 in [5] (setting [13]) was 6.57; in data set [6] (setting [14]) it was 6.21.

Take `Cc1c2c(nn1C)CN(C)CCCCn1c(C(=O)O)c(CCCOc3cccc4cc(F)ccc34)c3ccc(Cl)c-2c31` (racemic) [Example 30, (rac)-4-chloro-7-{3-[(6-fluoronaphthalen-1-yl)oxy]propyl}-2,3,14-trimethyl-10,11,12,13,14,15-hexahydro-2H-pyrazolo[3′,4′:8,9][1,6]diazacycloundecino[10,11,1-hi]indole-8-carboxylic Acid]: the pIC50 in [1] (setting [11]) is 6.47; in data set [2] (Homo sapiens, AMO1, 72 h), 6.38; in data set [9] (Homo sapiens, SU-DHL10, 72 h), 6.82; in data set [3], 9.04; in data set [4] (setting [12]), 6.68; in [7] (72 h), 5.81. In addition, the pIC50 was 6.77 in data set [8] (Homo sapiens, SU-DHL-5, 72 h) and 6.53 in data set [10]. In addition, the negative logarithm of the EC50 (pEC50) in [5] (setting [13]) was 6.74; in data set [6] (setting [14]) it was 6.43.
